Source: patent publication US20160220581A1, “CHROMIUM COMPOSITIONS FOR THE TREATMENT OR PREVENTION OF DIABETIC RETINOPATHY” (JDS Therapeutics, LLC, priority 2015, published 2016)

Columns and labels:
Assay type in all cases: in vivo, rat
[1] = tested on: diabetic rats; test: CrHis supplementation in STZ-induced diabetic rats: body weight and blood/serum biochemical parameters
Experimental: (§1) Diabetes was induced with streptozotocin [(STZ), 55 mg/kg] by intraperitoneal injection in male Long-Evans rats. Three weeks after STZ injection, rats were divided into four groups, namely, untreated normal controls, normal rats receiving CrHis (110 μg/kg/day); untreated diabetics and diabetics treated with CrHis (110 μg/kg/day) orally for 12 weeks.
(§2) Twenty eight Long Evans rats per experiment, aged 8 weeks with 250±20 g of body weight were used in these experiments. All the animals were kept and maintained under standard guidelines. The animals were kept and maintained at 22±2° C., humidity of 55%±5% and 12/12-hour light/dark cycle. The rats were weighed every week and at the end of the study. Blood sample was collected from the tail vein of each rat for the measurement of biochemical efficacy and safety markers.
(§3) The CrHis was given in the water and administered at a concentration of 110 μg/kg bw/d) to get 9.16 μg elemental Cr (kg body/d), which is an equivalent dose of 614 μg Cr for a 70-kg adult human based on previous work. The Cr concentration of the water provided the control group was negligible (<1 μg/L). The water provided the Cr-supplemented group was initially prepared as a solution containing 3000 μg CrHis/L of water. The […] water was diluted to achieve the target Cr intake per group on the basis of measured water intake. To induce experimental diabetes, STZ was dissolved in citrate buffer (pH 4.5) and injected once intraperitoneally at a dose of 55 mg/kg to the remainder of the animals. A control group was given citrate buffer via intraperitoneal injection.
(§4) Fourteen rats were treated with STZ (55 mg/kg body weight) through intraperitoneal injection. All rats were then fasted for 16 hour prior to treatment, but they had access to drinking water. The animals were divided into 4 groups: group I (Control) rats received citrate buffer intraperitoneally and isotonic saline, orally; group II (Control+CrHis) rats were administered chromium histidinate orally (110 μg/kg body weight) daily for a period of […]; group III (Diabetic) rats received single injection of STZ (55 mg/kg body weight) intraperitoneally and were also given isotonic saline, orally for the duration of the study; group IV (Diabetic+CrHis) diabetic rats were administered chromium orally as chromium histidinate (110 μg/kg body weight) daily for a period of 12 weeks after the induction of diabetes.
(§5) Body weight and blood glucose concentrations were monitored weekly. Blood was collected from the tail vein of the rats. Blood glucose was determined by one touch glucometer (ACCU-Check Active, Roche Diagnostics, Mannheim, Germany) after the injection for 72 h. Before STZ injection, glucose concentrations of study rats and controls were measured and compared.
(§6) Blood samples were centrifuged at 3000×g for 10 min and sera were separated. Serum glucose concentrations were measured by using ACCU-Chek Active (Roche Diagnostics, Basel, Switzerland). Serum insulin levels were measured with the Rat Insulin Kit (Linco Research, St Charles, Mo.) by enzyme-linked immunosorbent assay (ELISA, Elx-800, BioTek Instruments, Winooski, Vt.). Serum concentrations of total cholesterol (TC) were measured by diagnostic kits (Sigma Diagnostics, St Louis, Mo.). Blood glycosylated haemoglobin (HbAlc) was also measured by routine kit (Alfabiotech, Milano, Italy) using the autoanalyzer.
Data were analyzed statistically using one-way ANOVA. In the analyses for the biomarker(s), the repeated statement was added in the general linear model. The group differences were attained by the Fisher's multiple comparison test [Statistical Package for the Social Sciences (SPSS)]. A P value of less than 0.05 was considered significant.

[2] = tested on: normal rats; test: CrHis supplementation in normal rats: body weight and blood/serum biochemical parameters; details: CrHis group, CrHis 110 μg/kg/day orally
Experimental: as §1, §2, §3, §4, §5, §6
Data were analyzed statistically using one-way ANOVA. […]

[3] = tested on: glucose transporter 1 (GLUT 1); test: Western blot of retina GLUT 1 expression in diabetic rats; details: diabetic rats treated with CrHis, P<0.05, FIG. 1 Panel A
Experimental: as §1
(§7) After rats were sacrificed, both eyes were either (1) enucleated and frozen at −80° C. for the measurements of the target biomarker(s) and/or other analysis or (2) are examined immediately post-sacrifice for morphological changes. […]
(§8) Equal amounts of protein (50 μg) were electrophoresed and subsequently transferred onto a nitrocellulosemembrane (Schleicher and Schuell Inc., Keene, N.H., USA). […] Bands were analyzed densitometrically using an image analysis system (Image J; National Institute of Health, Bethesda, USA).
(§9) General procedures were conducted as described above. […] The retina MDA content was measured by high performance liquid chromatography (HPLC, Shimadzu, Tokyo, Japan) using a Shimadzu UV-vis SPD-10 AVP detector and a CTO-10 AS VP column in a mobile phase consisting of 30 mM KH2PO4 and methanol (82.5+17.5, v/v; pH 3.6) at a flow rate of 1.2 ml/min. Column effluents were monitored at 250 nm and the volume was 20 μl. […]
(§10) Data are means of quadruplets of assays and expressed as relative to control (%). […]

[4] = tested on: glucose transporter 3 (GLUT3); test: Western blot of retina GLUT3 expression in diabetic rats; details: diabetic rats treated with CrHis, P<0.05, FIG. 1 Panel B
Experimental: as §1, §7, §8, §9, §10

[5] = tested on: retina insulin; test: Western blot of retina insulin expression in diabetic rats; details: diabetic rats treated with CrHis, P<0.05, FIG. 1 Panel C
Experimental: as §1, §7, §8, §9, §10

[6] = tested on: retina malondialdehyde (MDA); test: Retina MDA content by HPLC in diabetic rats; details: diabetic rats treated with CrHis, FIG. 1 Panel D
Experimental: as §1
General procedures were conducted as described above. After rats were sacrificed, both eyes were enucleated and frozen at −80° C. for the measurements of MDA, GLUT 1, GLUT3 and insulin. The retina MDA content was measured by high performance liquid chromatography (HPLC, Shimadzu, Tokyo, Japan) using a Shimadzu UV-vis SPD-10 AVP detector and a CTO-10 AS VP column in a mobile phase consisting of 30 mM KH2PO4 and methanol (82.5+17.5, v/v; pH 3.6) at a flow rate of 1.2 ml/min. Column effluents were monitored at 250 nm and the volume was 20 μl. The retina homogenate (10%, w/v) was prepared in 10 mM phosphate buffer (pH 7.4), centrifuged at 13,000×g for 10 min at 4° C., and the supernatant was collected and stored at −80° C. for MDA analysis.

[7] = tested on: retina of diabetic rats; test: Histologic examination of retina in diabetic rats
Experimental: as §1
After the eye extirpation, tissue (retina) of each rat was also examined grossly. The tissue was removed for histologic study, washed with normal saline, and immersion-fixed in 10% buffered formalin immediately upon removal. They were gradually dehydrated, embedded in paraffin, cut into 5-μm sections, and stained with hematoxylin and eosin for histologic examination according to standard procedures.
General procedures were conducted as described above. Retinas were highly organized in the normal (control) rats, with intact layers. The retinas were disorganized in the diabetic rats with impaired layers. […] Similar experiments are conducted with other chromium species such as chromium nicotinate and chromium picolinate.

[8] = tested on: retinal lipid oxidation; test: Retinal lipid oxidation by LC-MS of retinal lysate (Example 3); details: versus other chromium complexes at equivalent total dosages of chromium
Experimental: (§11) General procedures are conducted as described above. Retinal lipids are extracted from the retinal cellular lysate and characterized by liquid chromatography-mass spectrometry.

[9] = tested on: retinal photoreceptors; test: Free radical oxidation of retinal photoreceptors (Example 4); details: versus other chromium complexes at equivalent total dosages of chromium
Experimental: as §11

[10] = tested on: hemoglobin glycation and/or retinal protein glycation; test: Hemoglobin glycation and retinal protein glycation (Example 5); details: versus other chromium complexes at equivalent total dosages of chromium
Experimental: General procedures are conducted as described above. […]. Retinal proteins are extracted from the retinal cellular lysate and characterized by liquid chromatography-mass spectrometry and/or Western Blotting.

[11] = tested on: retinal lipoprotein membrane content; test: Loss of retinal lipoprotein membrane content (Example 6); details: versus other chromium complexes at equivalent total dosages of chromium
Experimental: as §11

[12] = tested on: retinal capillary basement membrane; test: Retinal capillary basement membrane thickening (Example 7); details: versus other chromium complexes at equivalent total dosages of chromium
Experimental: General procedures are conducted as described above. Retinal capillary basement membrane thickening is characterized by physical examination of the eye using standard techniques.

[13] = tested on: retinal microangiopathy; test: Retinal microangiopathy (Example 8); details: versus other chromium complexes at equivalent total dosages of chromium
Experimental: General procedures are conducted as described above. Retinal microangiopathy is characterized using standard ophthalomogic techniques.

[14] = tested on: retinal hard exudates; test: Retinal hard exudates (Example 9); details: versus other chromium complexes at equivalent total dosages of chromium
Experimental: General procedures are conducted as described above. Retinal hard exudates are extracted from the retinal cellular lysate and characterized by liquid chromatography-mass spectrometry.

[15] = tested on: diabetic retinopathy; test: Co-administration of chromium histidinate with insulin or metformin in diabetic retinopathy (Example 10)
Experimental: General procedures are conducted as described above. Co-administration of chromium histidinate with insulin or metformin is performed. Retinal biomarker(s) are extracted from the retinal cellular lysate and characterized by liquid chromatography-mass spectrometry.

[16] = STZ + CrHis group, diabetic rats, CrHis 110 μg/kg/day orally for 12 weeks
[17] = diabetic retinopathy rats treated with CrHis

## chromium histidinate [CrHis]
[1]; CrHis-treated diabetic rats compared to the untreated diabetic group, P<0.001
  Body weight, change in words: significantly increased
[1]; [16]
  Body weight: 250 g
  Glucose: 290 mg/dL
  Glycosylated hemoglobin: 0.45 mg/g
  Insulin: 25.0 μU/mL
  Total cholesterol: 218 mg/dL
[1]; [17]
  Blood glucose level, change in words: significant increases
  HbAlc level, change in words: significant increases
  Insulin level, change in words: significant increases
[2]
  Body weight: 340 g
  Glucose: 100 mg/dL
  Glycosylated hemoglobin: 0.20 mg/g
  Insulin: 50.3 μU/mL
  Total cholesterol: 80 mg/dL
[3]
  Expression of GLUT1 in the retina: reversed these changes to near control levels
[4]
  Expression of GLUT3 in the retina: reversed these changes to near control levels
[5]
  Expression of insulin in the retina: reversed these changes to near control levels
[6]
  MDA expression in retina: statistically significant reduction
[7]; CrHis group compared to the diabetes group
  Retina organization (histology): surprisingly improved
[7]; versus other chromium complexes at equivalent total dosages of chromium
  Reducing the physiological effects of diabetic retinopathy: more efficacious
[8]
  Reducing the retinal lipid oxidation: more efficacious
[9]
  Reducing the free radical oxidation of retinal photoreceptors: more efficacious
[10]
  Reducing hemoglobin glycation and/or retinal protein glycation: more efficacious
[11]
  Decreasing the loss of retinal lipoprotein membrane content: more efficacious
[12]
  Preventing retinal capillary basement membrane from thickening: more efficacious
[13]
  Decreasing microangiopathy: more efficacious
[14]
  Reducing hard exudates: more efficacious
[15]
  Effect in treating diabetic retinopathy: synergistic effect
